From ChEMBL document CHEMBL1201862, “PubChem BioAssay data set” (2004)
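Step 1: Grow cells in 96-well plates. Step 2: Expose to compound for 48 hours at 5 concentrations. Step 3: Interpolate endpoints linearly; if unreached, use highest concentration. GI50: concentration for 50% inhibition of growth.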 Calls of active or inactive are those of the source. Rule as the data show it: active = GI50 up to about 1.1 µM and inactive = higher.

Legend:
Assay in all cases: growth of human tumour cells (NCI), 48 h
COLO 205 = system: COLO 205
LOX IMVI = system: LOX IMVI
NCI-H522 = system: NCI-H522
SN12C = system: SN12C
EKVX = system: EKVX
CCRF-CEM = system: CCRF-CEM
UACC-257 = system: UACC-257
SNB-75 = system: SNB-75
SF-268 = system: SF-268
786-0 = system: 786-0
CAKI-1 = system: CAKI-1
HCC 2998 = system: HCC 2998
HOP-62 = system: HOP-62
RPMI-8226 = system: RPMI-8226
SNB-19 = system: SNB-19
OVCAR-4 = system: OVCAR-4
A498 = system: A498

Measured: GI50

Cc1nc(N)nc(N)c1CCCc1ccccc1
inactive: COLO 205 22.8 µM | LOX IMVI 3.18 µM | NCI-H522 7.18 µM | SN12C 3.65 µM | EKVX 15.2 µM | CCRF-CEM 6.25 µM | UACC-257 12.7 µM | SNB-75 38.3 µM | SF-268 5.4 µM | 786-0 3.66 µM | CAKI-1 9.25 µM | HCC 2998 12.5 µM | HOP-62 12.1 µM | RPMI-8226 33.3 µM | SNB-19 11.2 µM | OVCAR-4 18.4 µM

Cc1ccc(NC(=O)CCC(=O)C(C#N)c2ccccc2)cc1C (configuration not stated)
inactive: COLO 205 > 100 µM | LOX IMVI > 100 µM | NCI-H522 > 100 µM | SN12C > 100 µM | A498 > 100 µM | EKVX > 100 µM | CCRF-CEM > 100 µM | UACC-257 > 100 µM | SF-268 > 100 µM | 786-0 > 100 µM | CAKI-1 > 100 µM | HCC 2998 > 100 µM | RPMI-8226 > 100 µM | SNB-19 > 100 µM | OVCAR-4 > 100 µM

C#CC1(O)CC(c2ccccc2)N(C)C(c2ccccc2)C1 (configuration not stated)
inactive: COLO 205 > 100 µM | LOX IMVI 51.5 µM | NCI-H522 > 100 µM | SN12C > 100 µM | A498 > 100 µM | EKVX > 100 µM | CCRF-CEM > 100 µM | UACC-257 > 100 µM | SNB-75 > 100 µM | SF-268 > 100 µM | 786-0 > 100 µM | CAKI-1 > 100 µM | HCC 2998 > 100 µM | HOP-62 > 100 µM | SNB-19 > 100 µM | OVCAR-4 > 100 µM

Nc1c(Cl)ncnc1NCCCNc1ncnc(Cl)c1N
inactive: COLO 205 > 100 µM | LOX IMVI > 100 µM | NCI-H522 69.3 µM | SN12C > 100 µM | A498 > 100 µM | EKVX > 100 µM | CCRF-CEM > 100 µM | UACC-257 67 µM | SF-268 > 100 µM | 786-0 > 100 µM | CAKI-1 > 100 µM | HCC 2998 > 100 µM | HOP-62 > 100 µM | RPMI-8226 > 100 µM | SNB-19 > 100 µM | OVCAR-4 > 100 µM

O=C(N/C(=C\c1ccc([N+](=O)[O-])cc1)c1nc2ccccc2[nH]1)c1ccccc1
inactive: COLO 205 > 100 µM | NCI-H522 64.7 µM | SN12C > 100 µM | A498 > 100 µM | EKVX > 100 µM | UACC-257 > 100 µM | SF-268 > 100 µM | 786-0 > 100 µM | HCC 2998 > 100 µM | HOP-62 > 100 µM | RPMI-8226 > 100 µM | SNB-19 > 100 µM | OVCAR-4 > 100 µM

O=S1(=O)OCCOS(=O)(=O)C1Br
inactive: COLO 205 > 100 µM | NCI-H522 > 100 µM | SN12C > 100 µM | A498 > 100 µM | CCRF-CEM > 100 µM | UACC-257 > 100 µM | SNB-75 > 100 µM | SF-268 > 100 µM | 786-0 > 100 µM | CAKI-1 > 100 µM | HCC 2998 > 100 µM | HOP-62 > 100 µM | RPMI-8226 > 100 µM | SNB-19 64.9 µM | OVCAR-4 > 100 µM

COc1cc(C2C(Cl)C(=O)N2n2cnc3ccccc3c2=O)cc(OC)c1OC (configuration not stated)
inactive: COLO 205 > 100 µM | LOX IMVI 57.4 µM | NCI-H522 > 100 µM | SN12C > 100 µM | EKVX 92 µM | CCRF-CEM 82 µM | UACC-257 55.8 µM | SNB-75 65.5 µM | SF-268 > 100 µM | 786-0 > 100 µM | CAKI-1 67.1 µM | HCC 2998 > 100 µM | HOP-62 > 100 µM | RPMI-8226 77.8 µM | SNB-19 > 100 µM | OVCAR-4 82.2 µM

OC(CCNC12CC3CC(CC(C3)C1)C2)c1ccccc1 (configuration not stated)
inactive: COLO 205 51.8 µM | NCI-H522 > 100 µM | SN12C > 100 µM | A498 > 100 µM | EKVX > 100 µM | CCRF-CEM 60.5 µM | UACC-257 > 100 µM | SNB-75 75.7 µM | SF-268 > 100 µM | 786-0 > 100 µM | CAKI-1 > 100 µM | HCC 2998 68.7 µM | HOP-62 > 100 µM | SNB-19 > 100 µM | OVCAR-4 > 100 µM

C#CC[C@]12CC(=O)CC[C@H]1CC1(C2)OCCO1
inactive: COLO 205 > 100 µM | NCI-H522 > 100 µM | SN12C > 100 µM | A498 > 100 µM | CCRF-CEM > 100 µM | UACC-257 > 100 µM | SNB-75 > 100 µM | SF-268 > 100 µM | 786-0 > 100 µM | CAKI-1 > 100 µM | HCC 2998 > 100 µM | HOP-62 > 100 µM | RPMI-8226 > 100 µM | SNB-19 > 100 µM | OVCAR-4 > 100 µM

CN1C(=O)CCC1(O)C1C=CC=CC1 (configuration not stated)
inactive: COLO 205 > 100 µM | LOX IMVI > 100 µM | NCI-H522 > 100 µM | SN12C > 100 µM | CCRF-CEM > 100 µM | UACC-257 > 100 µM | SNB-75 > 100 µM | SF-268 > 100 µM | 786-0 > 100 µM | CAKI-1 > 100 µM | HCC 2998 > 100 µM | HOP-62 > 100 µM | RPMI-8226 > 100 µM | SNB-19 > 100 µM | OVCAR-4 > 100 µM

CC(=O)Nc1ccc(-c2nnc(SCC(=O)Nc3cccc([N+](=O)[O-])c3)o2)cc1
inactive: COLO 205 19 µM | LOX IMVI 8.77 µM | NCI-H522 10.1 µM | SN12C 16.1 µM | CCRF-CEM 9.1 µM | UACC-257 17.3 µM | SNB-75 17.8 µM | SF-268 16.1 µM | 786-0 17.6 µM | CAKI-1 13.7 µM | HOP-62 22.9 µM | RPMI-8226 20.7 µM | OVCAR-4 11.6 µM

CCCCCCCC(=O)OC[C@H](C[As](=O)(O)O)OC(=O)CCCCCCC
inactive: COLO 205 15.1 µM | NCI-H522 1.42 µM | SN12C 10.1 µM | A498 11.5 µM | EKVX 21.1 µM | CCRF-CEM 1.95 µM | UACC-257 12.8 µM | SNB-75 11.1 µM | SF-268 1.82 µM | 786-0 13.4 µM | HCC 2998 14.6 µM | HOP-62 18.7 µM | RPMI-8226 5.36 µM | SNB-19 14.3 µM | OVCAR-4 12.2 µM

Cc1ccc(S(=O)(=O)OC2CSSCC2OS(=O)(=O)c2ccc(C)cc2)cc1 (configuration not stated)
inactive: COLO 205 13.7 µM | LOX IMVI 13.8 µM | NCI-H522 10.9 µM | SN12C 11.3 µM | EKVX 29.8 µM | CCRF-CEM 4.35 µM | UACC-257 10.2 µM | SNB-75 12.8 µM | SF-268 14.7 µM | 786-0 12.6 µM | CAKI-1 12.5 µM | HCC 2998 20.9 µM | HOP-62 20.3 µM | RPMI-8226 13.2 µM | SNB-19 17.3 µM | OVCAR-4 11.2 µM

N=C(N)SCCc1cn2ccccc2n1
inactive: COLO 205 > 100 µM | LOX IMVI > 100 µM | NCI-H522 > 100 µM | SN12C > 100 µM | EKVX > 100 µM | CCRF-CEM > 100 µM | UACC-257 > 100 µM | SNB-75 > 100 µM | SF-268 > 100 µM | 786-0 > 100 µM | CAKI-1 > 100 µM | HCC 2998 > 100 µM | HOP-62 > 100 µM | RPMI-8226 > 100 µM | SNB-19 > 100 µM | OVCAR-4 > 100 µM

c1ccc2c(c1)[nH]c1c2nc2ncccn21
inactive: NCI-H522 > 100 µM | SN12C > 100 µM | A498 > 100 µM | EKVX > 100 µM | CCRF-CEM > 100 µM | UACC-257 > 100 µM | SNB-75 > 100 µM | SF-268 > 100 µM | 786-0 > 100 µM | CAKI-1 > 100 µM | HCC 2998 > 100 µM | HOP-62 > 100 µM | SNB-19 > 100 µM | OVCAR-4 > 100 µM

COc1cc2c(cc1OC)C(N(C)C)C(c1ccccc1)=C2Cl (configuration not stated)
inactive: COLO 205 17.9 µM | LOX IMVI 17.4 µM | NCI-H522 10.1 µM | SN12C 18.7 µM | A498 22.5 µM | CCRF-CEM 60.5 µM | UACC-257 18 µM | SNB-75 20 µM | 786-0 25.3 µM | HOP-62 36.4 µM | RPMI-8226 18.2 µM | SNB-19 37.9 µM | OVCAR-4 27.4 µM

COC(=O)C1[C@H](c2ccc3c(c2)OCO3)OC(=O)[C@]1(C(=O)OC)C(=O)c1ccc(OC)c(OC)c1 (some centres not stated)
inactive: COLO 205 42.7 µM | LOX IMVI 18.8 µM | SN12C 48.9 µM | A498 > 100 µM | EKVX > 100 µM | CCRF-CEM 43.3 µM | UACC-257 40.2 µM | SNB-75 90.4 µM | 786-0 > 100 µM | CAKI-1 > 100 µM | HCC 2998 34.7 µM | HOP-62 > 100 µM | RPMI-8226 46.2 µM | OVCAR-4 > 100 µM

CC(C)C1CC(O)O[C@@H]([C@@H](C)[C@H]2CC(=O)[C@@H]3[C@@H]4[C@@H](O)[C@H](O)[C@H]5[C@@H](O)[C@H](O)CC[C@]5(C)[C@H]4CC[C@]23C)C1 (some centres not stated)
inactive: COLO 205 > 100 µM | LOX IMVI 50.1 µM | NCI-H522 70.1 µM | SN12C 28.7 µM | EKVX 66.1 µM | CCRF-CEM > 100 µM | UACC-257 5.06 µM | SNB-75 22.2 µM | SF-268 39.9 µM | 786-0 48 µM | HCC 2998 > 100 µM | HOP-62 21.2 µM | SNB-19 37.8 µM | OVCAR-4 > 100 µM
